Laboratory results as given in US8981148B2, “Esteramide compounds, methods for preparing same, and uses thereof” (priority 2010, dated 2015).

Key:
Assay type in all cases: physicochemical
[1] = Solubility of agrochemical actives in the solvents: visual observation at 25° C.; design: key: Crystal: When the formation of active crystals is observed, the term of <> is indicated; Limpid: When the solution remains limpid (absence of solid or cloudiness), it is the term of <> which is indicated
Procedure: (§1) Formulations were made by diluting various actives, reported below in the table, in the compounds 1C, 2C, 3 and 4 synthesized above.
1) Visual observation at 25° C.
The aspect of the formulation is noted and the presence of crystals is possibly located.
(§2) The actives used are commercially available.

[2] = Solubility of agrochemical actives in the solvents: visual observation at 0° C. after 7 days (CIPAC MT39 test); design: key: Crystal: When the formation of active crystals is observed, the term of <> is indicated; Limpid: When the solution remains limpid (absence of solid or cloudiness), it is the term of <> which is indicated; conditions: 7 days at 0° C.
Procedure: as §1
2) Visual observation at 0° C.
The formulation is placed at 0° C. for 7 days and the aspect of the formulation is noted and the presence of crystals is possibly located (CIPAC MT39 test).
as §2

[3] = Solubility of agrochemical actives in the solvents: visual observation at 0° C. with nucleation; design: key: Crystal: When the formation of active crystals is observed, the term of <> is indicated; Limpid: When the solution remains limpid (absence of solid or cloudiness), it is the term of <> which is indicated; conditions: crystal of active added, further 7 days at 0° C.
Procedure: Formulations were made by diluting various actives, reported below in the table, in the compounds 1C, 2C, 3 and 4 synthesized above. 3) Visual observation at 0° C. with nucleation (by introducing a crystal of the pure active into the liquid) A crystal of the active material is introduced into the formulation which has spent 7 days at 0° C. for nucleation, and the formulation is again placed for 7 days at 0° C. The aspect of the formulation is noted and the presence of crystals or the growth of the introduced crystal is possibly located. The actives used are commercially available.

[4] = Measurement of solubility of the solvent in water; conditions: +20° C., stirred 2 hours, visual limpidity
Procedure: In a glass flask, a specific weight of compound is weighed. A known mass of water is added on to this compound. T his mixture is magnetically stirred at a temperature of +20° C. for 2 hours. After this period, if visually, the solution has cloudiness or heterogeneity, a new mass of water is added to the mixture. This iteration occurs until a limpid solution is obtained. Maximum solubility is then less than the last value having led to a cloudy or heterogeneous mixture and greater than that having led to a limpid mixture.

[5] = Active Alachlor 48% EC in the compound as solvent
[6] = Active Azoxystrobin 25% EC in the compound as solvent
[7] = Active Difenconazole 25% EC in the compound as solvent
[8] = Active Dimethoate 40% EC in the compound as solvent
[9] = Active Oxyfluorfen 22% EC in the compound as solvent
[10] = Active Pendimethalin 33% EC in the compound as solvent
[11] = Active Phenmedipham 16% EC in the compound as solvent
[12] = Active Propanil 36% EC in the compound as solvent
[13] = Active Propuxur 20% EC in the compound as solvent
[14] = Active Tebuconazole 25% EC in the compound as solvent
[15] = Active Trifluralin 40% EC in the compound as solvent
[16] = Active alpha-Cypermethrin 10% EC in the compound as solvent
[17] = Active Chlorpyrifos 40% EC in the compound as solvent

| Structure (SMILES) | Aspect at 25° C. [1, 5] | Aspect at 25° C. [1, 7] | Aspect at 25° C. [1, 8] | Aspect at 25° C. [1, 9] | Aspect at 25° C. [1, 10] | Aspect at 25° C. [1, 12] | Aspect at 25° C. [1, 13] | Aspect at 25° C. [1, 15] | Aspect at 25° C. [1, 16] | Aspect at 0° C. [2, 5] | Aspect at 0° C. [2, 7] | Aspect at 0° C. [2, 8] | Aspect at 0° C. [2, 9] | Aspect at 0° C. [2, 10] | Aspect at 0° C. [2, 12] | Aspect at 0° C. [2, 13] | Aspect at 0° C. [2, 15] | Aspect at 0° C. with nucleation [3, 5] | Aspect at 0° C. with nucleation [3, 7] | Aspect at 0° C. with nucleation [3, 12] | also measured |
| --- | --- | --- | --- | --- | --- | --- | --- | --- | --- | --- | --- | --- | --- | --- | --- | --- | --- | --- | --- | --- | --- |
| COC(=O)C(=O)N(C)C [Compound 1, methyl 2-(dimethylamino)-2-oxoacetate] | Limpid | Limpid | Limpid | Limpid | Limpid | Limpid | Limpid | Limpid | Limpid | Limpid | Limpid | Crystal | Crystal | Crystal | Limpid | Limpid | Crystal | Limpid | Limpid | Limpid | Aspect at 25° C. [1, 6]: Limpid; Aspect at 25° C. [1, 11]: Limpid; Aspect at 25° C. [1, 14]: Limpid; Aspect at 0° C. [2, 6]: Crystal; Aspect at 0° C. [2, 11]: Limpid; Aspect at 0° C. [2, 14]: Crystal; Aspect at 0° C. [2, 16]: Limpid; Aspect at 0° C. with nucleation [3, 11]: Limpid; Aspect at 0° C. with nucleation [3, 13]: Limpid; Aspect at 0° C. with nucleation [3, 16]: Limpid |
| CCOC(=O)C(=O)N(C)C [Compound 2, ethyl 2-(dimethylamino)-2-oxoacetate] | Limpid | Limpid | Limpid | Limpid | Limpid | Limpid | Limpid | Limpid | Limpid | Limpid | Limpid | Limpid | Limpid | Crystal | Limpid | Crystal | Limpid | Limpid | Limpid | Limpid | Aspect at 25° C. [1, 6]: Limpid; Aspect at 25° C. [1, 17]: Limpid; Aspect at 25° C. [1, 11]: Limpid; Aspect at 25° C. [1, 14]: Limpid; Aspect at 0° C. [2, 6]: Crystal; Aspect at 0° C. [2, 17]: Limpid; Aspect at 0° C. [2, 11]: Limpid; Aspect at 0° C. [2, 14]: Crystal; Aspect at 0° C. [2, 16]: Limpid; Aspect at 0° C. with nucleation [3, 17]: Limpid; Aspect at 0° C. with nucleation [3, 8]: Crystal; Aspect at 0° C. with nucleation [3, 9]: Limpid; Aspect at 0° C. with nucleation [3, 11]: Limpid; Aspect at 0° C. with nucleation [3, 15]: Limpid; Aspect at 0° C. with nucleation [3, 16]: Limpid |
| CCCCC(CC)COC(=O)C(=O)N(C)C (centres unmarked) [Compound 3, 2-ethyl-hexyl 2-(dimethylamino)-2-oxoacetate] | Limpid | Limpid | Limpid | Limpid | Limpid | Limpid | Limpid | Limpid | Limpid | Limpid | Limpid | Crystal | Limpid | Crystal | Limpid | Crystal | Limpid | Limpid | Limpid | Limpid | Solubility in water (wt %) [4]: <0.1 wt %; Aspect at 25° C. [1, 17]: Limpid; Aspect at 0° C. [2, 17]: Limpid; Aspect at 0° C. [2, 16]: Limpid; Aspect at 0° C. with nucleation [3, 17]: Limpid; Aspect at 0° C. with nucleation [3, 9]: Crystal; Aspect at 0° C. with nucleation [3, 15]: Limpid; Aspect at 0° C. with nucleation [3, 16]: Limpid |
| CCCCCCCCCCOC(=O)C(=O)N(C)C [Compound 4, n-decyl 2-(dimethylamino)-2-oxoacetate] | Limpid | Limpid | – | Limpid | – | Limpid | – | Limpid | – | Limpid | Limpid | – | Limpid | – | Limpid | – | Crystal | Limpid | Limpid | Limpid | Solubility in water (wt %) [4]: <0.025 wt %; Aspect at 25° C. [1, 17]: Limpid; Aspect at 0° C. [2, 17]: Crystal; Aspect at 0° C. with nucleation [3, 9]: Limpid |
